From EP0908457B1, “3-(1,2-benzisothiazol- and isoxazol-5-Y1)-2,4(1H,3H)-pyrimidinedione or thione and 3-(1,2-benzisothiazol- and isoxazol-5-y1)-4(3H)-pyrimidinone or thione herbicidal agents” (BASF AKTIENGESELLSCHAFT, priority 1997, dated 1999)

What was measured:
Type in all cases: in vivo
[1] = test system: Cyperus iria; assay: Preemergence weed control under flooded paddy conditions, CYPIR (Rice Flatsedge); settings: flooded paddy; for herbicidal effect rating, CYPIR / CYPIR herbicidal rating: preemergence, rated three to four weeks after treatment; for CYPIR: preemergence weeds, herbicidal effect rating 0-9, three to four weeks after treatment; as to herbicidal effect rating, CYPIR: meaning of each grade not given here
[2] = test system: Echinochloa oryzoides (Ard.) Fritsch.; assay: Preemergence weed control under flooded paddy conditions, ECHORC (Watergrass (Calif.)); settings: flooded paddy; for herbicidal effect rating, ECHORC / ECHORC herbicidal rating: preemergence, rated three to four weeks after treatment; for ECHORC: preemergence weeds, herbicidal effect rating 0-9, three to four weeks after treatment; as to herbicidal effect rating, ECHORC: meaning of each grade not given here
[3] = test system: Monochoria vaginalis, Presl.; assay: Preemergence weed control under flooded paddy conditions, MOOVA (Monochoria); settings: flooded paddy; for herbicidal effect rating, MOOVA / MOOVA herbicidal rating: preemergence, rated three to four weeks after treatment; for MOOVA: preemergence weeds, herbicidal effect rating 0-9, three to four weeks after treatment; as to herbicidal effect rating, MOOVA: meaning of each grade not given here
[4] = test system: Cyperus serotinus, Rottb.; assay: Preemergence weed control under flooded paddy conditions, CYPSE (Flatsedge); settings: for herbicidal effect rating, CYPSE / CYPSE herbicidal rating: preemergence, rated three to four weeks after treatment; for CYPSE: preemergence weeds, herbicidal effect rating 0-9, three to four weeks after treatment; as to herbicidal effect rating, CYPSE: meaning of each grade not given here
[5] = test system: Sagittaria pygmaea, L.; assay: Preemergence weed control under flooded paddy conditions, SAGPY (Arrowhead (Pygmaea)); settings: flooded paddy; for herbicidal effect rating, SAGPY / SAGPY herbicidal rating: preemergence, rated three to four weeks after treatment; for SAGPY: preemergence weeds, herbicidal effect rating 0-9, three to four weeks after treatment; as to herbicidal effect rating, SAGPY: meaning of each grade not given here

| Compound | herbicidal effect rating, CYPIR ([1]; Rate 0.0320 kg/ha) | herbicidal effect rating, CYPIR ([1]; Rate 0.0620 kg/ha) | herbicidal effect rating, CYPIR ([1]; Rate 0.1250 kg/ha) | herbicidal effect rating, CYPIR ([1]; Rate 0.2500 kg/ha) | herbicidal effect rating, ECHORC ([2]; Rate 0.0320 kg/ha) | herbicidal effect rating, ECHORC ([2]; Rate 0.0620 kg/ha) | herbicidal effect rating, ECHORC ([2]; Rate 0.1250 kg/ha) | herbicidal effect rating, ECHORC ([2]; Rate 0.2500 kg/ha) | herbicidal effect rating, MOOVA ([3]; Rate 0.0320 kg/ha) | herbicidal effect rating, MOOVA ([3]; Rate 0.0620 kg/ha) | herbicidal effect rating, MOOVA ([3]; Rate 0.1250 kg/ha) | herbicidal effect rating, MOOVA ([3]; Rate 0.2500 kg/ha) | herbicidal effect rating, CYPSE ([4]; Rate 0.0320 kg/ha) | herbicidal effect rating, CYPSE ([4]; Rate 0.0620 kg/ha) | herbicidal effect rating, CYPSE ([4]; Rate 0.1250 kg/ha) | herbicidal effect rating, CYPSE ([4]; Rate 0.2500 kg/ha) | herbicidal effect rating, SAGPY ([5]; Rate 0.0320 kg/ha) | herbicidal effect rating, SAGPY ([5]; Rate 0.0620 kg/ha) | herbicidal effect rating, SAGPY ([5]; Rate 0.1250 kg/ha) | herbicidal effect rating, SAGPY ([5]; Rate 0.2500 kg/ha) | other results |
| --- | --- | --- | --- | --- | --- | --- | --- | --- | --- | --- | --- | --- | --- | --- | --- | --- | --- | --- | --- | --- | --- |
| CCCCS(=O)(=O)OCc1nsc2ccc(-n3c(=O)cc(C(F)(F)F)n(C)c3=O)cc12 [Example 381, 2,4(1H,3H)-Pyrimidinedione, 3-[3-(hydroxymethyl)-1,2-benzisothiazol-5-yl]-1-methyl-6-(trifluoromethyl)-, butanesulfonate (ester)] | 6.0 | 7.0 | 8.0 | 8.0 | 0.0 | 3.0 | 4.0 | 6.0 | 6.0 | 7.0 | 8.0 | 8.0 | 0.0 | 4.0 | 7.0 | 7.0 | 3.0 | 5.0 | 6.0 | 7.0 | – |
| Cn1c(C(F)(F)F)cc(=O)n(-c2ccc3snc(COC(=O)c4cccnc4Cl)c3c2)c1=O [Example 480, 2,4(1H,3H)-Pyrimidinedione, 3-[3-(hydroxymethyl)-1,2-benzisothiazol-5-yl]-1-methyl-6-(trifluoromethyl)-, 2-chloronicotinate (ester)] | – | – | – | – | – | – | – | – | – | – | – | – | – | – | – | – | – | – | – | – | CYPIR herbicidal rating ([1]; 0.0320 kg/ha): 6.0; CYPIR herbicidal rating ([1]; 0.0620 kg/ha): 9.0; CYPIR herbicidal rating ([1]; 0.1250 kg/ha): 9.0; CYPIR herbicidal rating ([1]; 0.2500 kg/ha): 9.0; ECHORC herbicidal rating ([2]; 0.0320 kg/ha): 0.0; ECHORC herbicidal rating ([2]; 0.0620 kg/ha): 2.0; ECHORC herbicidal rating ([2]; 0.1250 kg/ha): 5.0; ECHORC herbicidal rating ([2]; 0.2500 kg/ha): 6.0; MOOVA herbicidal rating ([3]; 0.0320 kg/ha): 7.0; MOOVA herbicidal rating ([3]; 0.0620 kg/ha): 9.0; MOOVA herbicidal rating ([3]; 0.1250 kg/ha): 9.0; MOOVA herbicidal rating ([3]; 0.2500 kg/ha): 9.0; CYPSE herbicidal rating ([4]; 0.0320 kg/ha): 3.0; CYPSE herbicidal rating ([4]; 0.1250 kg/ha): 3.0; SAGPY herbicidal rating ([5]; 0.0320 kg/ha): 0.0; SAGPY herbicidal rating ([5]; 0.0620 kg/ha): 3.0; SAGPY herbicidal rating ([5]; 0.1250 kg/ha): 5.0; SAGPY herbicidal rating ([5]; 0.2500 kg/ha): 6.0 |
| C=CCONC(=O)c1nsc2ccc(-n3c(=O)cc(C(F)(F)F)n(C)c3=O)cc12 [Example 399, 1,2-Benzisothiazole-3-carboxamide, N-(allyloxy)-5-[3,6-dihydro-3-methyl-2,6-dioxo-4-(trifluoromethyl)-1(2H)-pyrimidinyl]-] | 0.0 | 2.0 | 7.0 | 8.0 | 0.0 | 0.0 | 2.0 | 3.0 | 6.0 | 7.0 | 8.0 | 9.0 | 0.0 | 0.0 | 0.0 | 0.0 | 0.0 | 0.0 | 0.0 | 0.0 | – |
| Cn1c(C(F)(F)F)cc(=O)n(-c2ccc3snc(COC(=O)Cc4ccc(Cl)cc4Cl)c3c2)c1=O [Example 401, 2,4(1H,3H)-Pyrimidinedione, 3-[3-(hydroxymethyl)-1,2-benzisothiazol-5-yl]-1-methyl-6-(trifluoromethyl)-, (2,4-dichlorophenyl)acetate (ester)] | 3.0 | 4.0 | 5.0 | 6.0 | 0.0 | 0.0 | 2.0 | 6.0 | 6.0 | 7.0 | 7.0 | 9.0 | – | 0.0 | 0.0 | 3.0 | 0.0 | 0.0 | 2.0 | 3.0 | – |
| Cn1c(C(F)(F)F)cc(=O)n(-c2ccc3snc(C(C#N)=Cc4ccccc4C#N)c3c2)c1=O [Example 606, 1,2-Benzisothiazole-3-acetonitrile, alpha-(o-cyanobenzylidene)-5-[3,6-dihydro-3-methyl-2,6-dioxo-4-(trifluoromethyl)-1(2H)-pyrimidinyl]-, (E)- and (Z)-] | 4.0 | 6.0 | 6.0 | 9.0 | 5.0 | 5.0 | 5.0 | 6.0 | 6.0 | 7.0 | 7.0 | 9.0 | 0.0 | 2.0 | 2.0 | 2.0 | 0.0 | – | 3.0 | 4.0 | – |
| Cn1c(C(F)(F)F)cc(=O)n(-c2ccc3snc(C(SCCCO)SCCCO)c3c2)c1=O [Example 424, 1,2-Benzisothiazole-3-carboxaldehyde, 5-[3,6-dihydro-3-methyl-2,6-dioxo-4-(trifluoromethyl)-1(2H)-pyrimidinyl]-, 3-[bis(3-hydroxypropyl)dithioacetal]] | – | – | – | – | – | – | – | – | – | – | – | – | – | – | – | – | – | – | – | – | CYPIR ([1]; 0.0320 kg/ha): 4.0; CYPIR ([1]; 0.0620 kg/ha): 5.0; CYPIR ([1]; 0.1250 kg/ha): 6.0; CYPIR ([1]; 0.2500 kg/ha): 7.0; ECHORC ([2]; 0.0320 kg/ha): 0.0; ECHORC ([2]; 0.0620 kg/ha): 0.0; ECHORC ([2]; 0.1250 kg/ha): 3.0; ECHORC ([2]; 0.2500 kg/ha): 3.0; MOOVA ([3]; 0.0320 kg/ha): 7.0; MOOVA ([3]; 0.0620 kg/ha): 9.0; MOOVA ([3]; 0.1250 kg/ha): 9.0; MOOVA ([3]; 0.2500 kg/ha): 9.0; CYPSE ([4]; 0.1250 kg/ha): 3.0; CYPSE ([4]; 0.2500 kg/ha): 3.0; SAGPY ([5]; 0.0320 kg/ha): 0.0; SAGPY ([5]; 0.0620 kg/ha): 0.0; SAGPY ([5]; 0.1250 kg/ha): 0.0; SAGPY ([5]; 0.2500 kg/ha): 0.0 |
| CN(O)C(=O)c1nsc2ccc(-n3c(=O)cc(C(F)(F)F)n(C)c3=O)cc12 [Example 398, 1,2-Benzisothiazole-3-carbohydroxamic acid, 5-[3,6-dihydro-3-methyl-2,6-dioxo-4-(trifluoromethyl)-1(2H)-pyrimidinyl]-N-methyl-] | 0.0 | 3.0 | 6.0 | 8.0 | 0.0 | 2.0 | 3.0 | 8.0 | 6.0 | 9.0 | 9.0 | 9.0 | 0.0 | 0.0 | 3.0 | 3.0 | 0.0 | 0.0 | 0.0 | 3.0 | – |
| CONC(=O)c1nsc2ccc(-n3c(=O)cc(C(F)(F)F)n(C)c3=O)cc12 [Example 403, 1,2-Benzisothiazole-3-carboxamide, 5-[3,6-dihydro-3-methyl-2,6-dioxo-4-(trifluoromethyl)-1(2H)-pyrimidinyl]-N-methoxy-] | – | – | – | 9.0 | – | – | – | 4.0 | – | – | – | 9.0 | – | – | – | 4.0 | – | – | – | 9.0 | CYPIR ([1]; 0.0320 kg/ha): 5.0; CYPIR ([1]; 0.0620 kg/ha): 6.0; CYPIR ([1]; 0.1250 kg/ha): 7.0; ECHORC ([2]; 0.0320 kg/ha): 0.0; ECHORC ([2]; 0.0620 kg/ha): 2.0; ECHORC ([2]; 0.1250 kg/ha): 4.0; MOOVA ([3]; 0.0320 kg/ha): 7.0; MOOVA ([3]; 0.0620 kg/ha): 6.0; MOOVA ([3]; 0.1250 kg/ha): 9.0; CYPSE ([4]; 0.0320 kg/ha): 0.0; CYPSE ([4]; 0.0620 kg/ha): 0.0; CYPSE ([4]; 0.1250 kg/ha): 2.0; SAGPY ([5]; 0.0320 kg/ha): 3.0; SAGPY ([5]; 0.0620 kg/ha): 9.0; SAGPY ([5]; 0.1250 kg/ha): 9.0 |
